Reference: patent US20250042875A1, “PESTICIDALLY ACTIVE PYRIDAZINONE COMPOUNDS” (SYNGENTA CROP PROTECTION AG, priority 2021, published 2025)

How the values were obtained:
Type in all cases: in vivo
Euschistus heros = assay: Activity against Euschistus heros (neotropical brown stink bug), soybean leaves, N2 nymphs; details: 120 h, application rate 200 ppm, 5 days after infestation, read-out: effect in at least one of the two categories (mortality or growth inhibition)
Protocol: Example B3: Activity Against Euschistus heros (Neotropical Brown Stink Bug)
Soybean leaves on agar in 24-well microtiter plates were sprayed with aqueous test solutions prepared from 10′000 ppm DMSO stock solutions. After drying the leaves were infested with N2 nymphs. The samples were assessed for mortality and growth inhibition in comparison to untreated samples 5 days after infestation.

Myzus persicae [1] = assay: Activity against Myzus persicae (green peach aphid), feeding/contact activity; details: 144 h, application rate 200 ppm, 6 days after infestation
Protocol: Example B5: Activity Against Myzus persicae (Green Peach Aphid). Feeding/Contact Activity
Sunflower leaf discs were placed onto agar in a 24-well microtiter plate and sprayed with aqueous test solutions prepared from 10′000 ppm DMSO stock solutions. After drying, the leaf discs were infested with an aphid population of mixed ages. The samples were assessed for mortality 6 days after infestation.

Chilo suppressalis = assay: Activity against Chilo suppressalis (striped rice stemborer), artificial diet, L2 larvae; details: 144 h, application rate 200 ppm, 6 days after infestation, read-out: control in at least one of the three categories (mortality, anti-feedant effect, or growth inhibition)
Protocol: Example B1: Activity Against Chilo suppressalis (Striped Rice Stemborer)
24-well microtiter plates with artificial diet were treated with aqueous test solutions prepared from 10′000 ppm DMSO stock solutions by pipetting. After drying, the plates were infested with L2 larvae (6-8 per well). The samples were assessed for mortality, anti-feeding effect, and growth inhibition in comparison to untreated samples 6 days after infestation. Control of Chilo suppressalis by a test sample is given when at least one of the categories mortality, anti-feedant effect, and growth inhibition is higher than the untreated sample.

Myzus persicae [2] = assay: Activity against Myzus persicae (green peach aphid), intrinsic activity; details: 120 h, test rate 12 ppm, 5 days after infestation
From the text: Example B6: Activity Against Myzus persicae (Green Peach Aphid). Intrinsic Activity
Test compounds prepared from 10′000 ppm DMSO stock solutions were applied by pipette into 24-well microtiter plates and mixed with sucrose solution. The plates were closed with a stretched Parafilm. A plastic stencil with 24 holes was placed onto the plate and infested pea seedlings were placed directly on the Parafilm. The infested plate was closed with a gel blotting paper and another plastic stencil and then turned upside down. The samples were assessed for mortality 5 days after infestation.

Spodoptera littoralis = assay: Activity against Spodoptera littoralis (Egyptian cotton leaf worm), cotton leaf discs, L1 larvae; details: foliar, 72 h, application rate 200 ppm, 3 days after infestation, read-out: control in at least one of the three categories (mortality, anti-feedant effect, or growth inhibition)
Protocol: Example B8: Activity Against Spodoptera littoralis (Egyptian Cotton Leaf Worm)
Cotton leaf discs were placed onto agar in 24-well microtiter plates and sprayed with aqueous test solutions prepared from 10′000 ppm DMSO stock solutions. After drying the leaf discs were infested with five L1 larvae. The samples were assessed for mortality, anti-feeding effect, and growth inhibition in comparison to untreated samples 3 days after infestation. Control of Spodoptera littoralis by a test sample is given when at least one of the categories mortality, anti-feedant effect, and growth inhibition is higher than the untreated sample.

Diabrotica balteata = assay: Activity against Diabrotica balteata (corn root worm), maize sprouts, L2 larvae; details: 96 h, application rate 200 ppm, 4 days after infestation, read-out: control in at least one of the two categories (mortality or growth inhibition)
Protocol: Example B2: Activity Against Diabrotica Balteata (Corn Root Worm)
Maize sprouts placed onto an agar layer in 24-well microtiter plates were treated with aqueous test solutions prepared from 10′000 ppm DMSO stock solutions by spraying. After drying, the plates were infested with L2 larvae (6 to 10 per well). The samples were assessed for mortality and growth inhibition in comparison to untreated samples 4 days after infestation.

Plutella xylostella = assay: Activity against Plutella xylostella (diamond back moth), artificial diet, eggs; details: 192 h, application rate 200 ppm, 8 days after infestation, read-out: control in at least one of the two categories (mortality or growth inhibition)
Protocol: Example B7: Activity Against Plutella xylostella (Diamond Back Moth)
24-well microtiter plates with artificial diet were treated with aqueous test solutions prepared from 10′000 ppm DMSO stock solutions by pipetting. After drying, Plutella eggs were pipetted through a plastic stencil onto a gel blotting paper and the plate was closed with it. The samples were assessed for mortality and growth inhibition in comparison to untreated samples 8 days after infestation.

CC(NC(=O)c1cc(OC(F)F)cc(C(F)(F)F)c1)c1nccnc1-c1ccc(=O)n(C)n1 (centres unmarked) [P14, 3-(difluoromethoxy)-N-[1-[3-(1-methyl-6-oxo-pyridazin-3-yl)pyrazin-2-yl]ethyl]-5-(trifluoromethyl)benzamide]
≥ 80%: percent effect (mortality or growth inhibition) at 200 ppm (Euschistus heros) | mortality at 200 ppm (Myzus persicae [1]) | percent control (mortality, anti-feedant effect or growth inhibition) at 200 ppm (Chilo suppressalis) | mortality at 12 ppm (Myzus persicae [2]) | percent control (mortality, anti-feedant effect or growth inhibition) at 200 ppm (Spodoptera littoralis) | percent control (mortality or growth inhibition) at 200 ppm (Diabrotica balteata) | percent control (mortality or growth inhibition) at 200 ppm (Plutella xylostella)

C[C@H](NC(=O)c1cc(Br)cc(I)c1)c1ncnn1-c1ccc(=O)n(C)n1 [P30, 3-bromo-5-iodo-N-[(1S)-1-[2-(1-methyl-6-oxo-pyridazin-3-yl)-1,2,4-triazol-3-yl]ethyl]benzamide]
≥ 80%: percent effect (mortality or growth inhibition) at 200 ppm (Euschistus heros) | mortality at 200 ppm (Myzus persicae [1]) | percent control (mortality, anti-feedant effect or growth inhibition) at 200 ppm (Chilo suppressalis) | mortality at 12 ppm (Myzus persicae [2]) | percent control (mortality, anti-feedant effect or growth inhibition) at 200 ppm (Spodoptera littoralis) | percent control (mortality or growth inhibition) at 200 ppm (Diabrotica balteata) | percent control (mortality or growth inhibition) at 200 ppm (Plutella xylostella)

CC(NC(=O)c1cc(Cl)cc(C(F)(F)F)c1)c1nccnc1-c1ccc(=O)n(C)n1 (centres unmarked) [P7, 3-chloro-N-[1-[3-(1-methyl-6-oxo-pyridazin-3-yl)pyrazin-2-yl]ethyl]-5-(trifluoromethyl)benzamide]
≥ 80%: mortality at 200 ppm (Myzus persicae [1]) | percent control (mortality, anti-feedant effect or growth inhibition) at 200 ppm (Chilo suppressalis) | mortality at 12 ppm (Myzus persicae [2]) | percent control (mortality, anti-feedant effect or growth inhibition) at 200 ppm (Spodoptera littoralis) | percent control (mortality or growth inhibition) at 200 ppm (Diabrotica balteata) | percent control (mortality or growth inhibition) at 200 ppm (Plutella xylostella)

C[C@H](NC(=O)c1cc(C(F)(F)F)cc(S(=O)(=O)C(F)(F)F)c1)c1ncnn1-c1ccc(=O)n(C)n1 [P8, N-[(1S)-1-[2-(1-methyl-6-oxo-pyridazin-3-yl)-1,2,4-triazol-3-yl]ethyl]-3-(trifluoromethyl)-5-(trifluoromethylsulfonyl) benzamide]
≥ 80%: percent effect (mortality or growth inhibition) at 200 ppm (Euschistus heros) | mortality at 200 ppm (Myzus persicae [1]) | percent control (mortality, anti-feedant effect or growth inhibition) at 200 ppm (Chilo suppressalis) | mortality at 12 ppm (Myzus persicae [2]) | percent control (mortality, anti-feedant effect or growth inhibition) at 200 ppm (Spodoptera littoralis) | percent control (mortality or growth inhibition) at 200 ppm (Diabrotica balteata) | percent control (mortality or growth inhibition) at 200 ppm (Plutella xylostella)

CC(NC(=O)c1cc(C(F)(F)F)nc(C2(C#N)CC2)c1)c1nccnc1-c1ccc(=O)n(C)n1 (centres unmarked) [P32, 2-(1-cyanocyclopropyl)-N-[1-[3-(1-methyl-6-oxo-pyridazin-3-yl)pyrazin-2-yl]ethyl]-6-(trifluoromethyl)pyridine-4-carboxamide]
≥ 80%: percent effect (mortality or growth inhibition) at 200 ppm (Euschistus heros) | mortality at 200 ppm (Myzus persicae [1]) | percent control (mortality, anti-feedant effect or growth inhibition) at 200 ppm (Chilo suppressalis) | mortality at 12 ppm (Myzus persicae [2]) | percent control (mortality, anti-feedant effect or growth inhibition) at 200 ppm (Spodoptera littoralis) | percent control (mortality or growth inhibition) at 200 ppm (Diabrotica balteata) | percent control (mortality or growth inhibition) at 200 ppm (Plutella xylostella)

CC(NC(=O)c1cc(OC(F)F)cc(C2(C#N)CC2)c1)c1nccnc1-c1ccc(=O)n(C)n1 (centres unmarked) [P44, 3-(1-cyanocyclopropyl)-5-(difluoromethoxy)-N-[1-[3-(1-methyl-6-oxo-pyridazin-3-yl)pyrazin-2-yl]ethyl]benzamide]
≥ 80%: percent effect (mortality or growth inhibition) at 200 ppm (Euschistus heros) | mortality at 200 ppm (Myzus persicae [1]) | percent control (mortality, anti-feedant effect or growth inhibition) at 200 ppm (Chilo suppressalis) | mortality at 12 ppm (Myzus persicae [2]) | percent control (mortality, anti-feedant effect or growth inhibition) at 200 ppm (Spodoptera littoralis) | percent control (mortality or growth inhibition) at 200 ppm (Plutella xylostella)

CC(NC(=O)c1cc(C(F)(F)F)cc(C2(C#N)CC2)c1)c1nccnc1-c1ccc(=O)n(C)n1 (centres unmarked) [P24, 3-(1-cyanocyclopropyl)-N-[1-[3-(1-methyl-6-oxo-pyridazin-3-yl)pyrazin-2-yl]ethyl]-5-(trifluoromethyl) benzamide]
≥ 80%: mortality at 200 ppm (Myzus persicae [1]) | percent control (mortality, anti-feedant effect or growth inhibition) at 200 ppm (Chilo suppressalis) | mortality at 12 ppm (Myzus persicae [2]) | percent control (mortality, anti-feedant effect or growth inhibition) at 200 ppm (Spodoptera littoralis) | percent control (mortality or growth inhibition) at 200 ppm (Plutella xylostella)

C[C@H](NC(=O)c1cc(Cl)nc(C2(C#N)CC2)c1)c1ncnn1-c1ccc(=O)n(C)n1 [P35, 2-chloro-6-(1-cyanocyclopropyl)-N-[(1S)-1-[2-(1-methyl-6-oxo-pyridazin-3-yl)-1,2,4-triazol-3-yl]ethyl]pyridine-4-carboxamide]
≥ 80%: percent effect (mortality or growth inhibition) at 200 ppm (Euschistus heros) | mortality at 200 ppm (Myzus persicae [1]) | percent control (mortality, anti-feedant effect or growth inhibition) at 200 ppm (Chilo suppressalis) | mortality at 12 ppm (Myzus persicae [2]) | percent control (mortality or growth inhibition) at 200 ppm (Plutella xylostella)

CC(NC(=O)c1cc(Br)cc(C(F)(F)F)c1)c1nccnc1-c1cn(CC(F)F)c(=O)cn1 (centres unmarked) [P49, 3-bromo-N-[1-[3-[4-(2,2-difluoroethyl)-5-oxo-pyrazin-2-yl]pyrazin-2-yl]ethyl]-5-(trifluoromethyl)benzamide]
≥ 80%: mortality at 200 ppm (Myzus persicae [1]) | percent control (mortality, anti-feedant effect or growth inhibition) at 200 ppm (Chilo suppressalis) | mortality at 12 ppm (Myzus persicae [2]) | percent control (mortality, anti-feedant effect or growth inhibition) at 200 ppm (Spodoptera littoralis) | percent control (mortality or growth inhibition) at 200 ppm (Diabrotica balteata) | percent control (mortality or growth inhibition) at 200 ppm (Plutella xylostella)

C[C@H](NC(=O)c1cc(OC(F)F)cc(C2(C#N)CC2)c1)c1ncnn1-c1ccc(=O)n(C)n1 [P45, 3-(1-cyanocyclopropyl)-5-(difluoromethoxy)-N-[(1S)-1-[2-(1-methyl-6-oxo-pyridazin-3-yl)-1,2,4-triazol-3-yl]ethyl]benzamide]
≥ 80%: percent effect (mortality or growth inhibition) at 200 ppm (Euschistus heros) | mortality at 200 ppm (Myzus persicae [1]) | percent control (mortality, anti-feedant effect or growth inhibition) at 200 ppm (Chilo suppressalis) | mortality at 12 ppm (Myzus persicae [2])

CCn1nc(-n2ncnc2[C@H](C)NC(=O)c2cc(Cl)cc(S(=O)(=O)C(F)(F)F)c2)ccc1=O [P17, 3-chloro-N-[(1S)-1-[2-(1-ethyl-6-oxo-pyridazin-3-yl)-1,2,4-triazol-3-yl]ethyl]-5-(trifluoromethylsulfonyl)benzamide]
≥ 80%: mortality at 200 ppm (Myzus persicae [1]) | percent control (mortality, anti-feedant effect or growth inhibition) at 200 ppm (Chilo suppressalis) | mortality at 12 ppm (Myzus persicae [2]) | percent control (mortality, anti-feedant effect or growth inhibition) at 200 ppm (Spodoptera littoralis) | percent control (mortality or growth inhibition) at 200 ppm (Diabrotica balteata) | percent control (mortality or growth inhibition) at 200 ppm (Plutella xylostella)

CC(NC(=O)c1cc(Cl)nc(C2(C#N)CC2)c1)c1nccnc1-c1ccc(=O)n(C)n1 (centres unmarked) [P34, 2-chloro-6-(1-cyanocyclopropyl)-N-[1-[3-(1-methyl-6-oxo-pyridazin-3-yl)pyrazin-2-yl]ethyl]pyridine-4-carboxamide]
≥ 80%: mortality at 200 ppm (Myzus persicae [1]) | percent control (mortality, anti-feedant effect or growth inhibition) at 200 ppm (Chilo suppressalis) | mortality at 12 ppm (Myzus persicae [2]) | percent control (mortality, anti-feedant effect or growth inhibition) at 200 ppm (Spodoptera littoralis) | percent control (mortality or growth inhibition) at 200 ppm (Plutella xylostella)

C[C@@H](c1ncnn1C1=NN(C)C(=O)CC1)N(C)C(=O)c1cc(Cl)cc(S(=O)(=O)C(F)(F)F)c1 [P22, 3-chloro-N-methyl-N-[(1S)-1-[2-(1-methyl-6-oxo-4,5-dihydropyridazin-3-yl)-1,2,4-triazol-3-yl]ethyl]-5-(trifluoromethylsulfonyl) benzamide]
≥ 80%: mortality at 200 ppm (Myzus persicae [1]) | percent control (mortality, anti-feedant effect or growth inhibition) at 200 ppm (Chilo suppressalis) | mortality at 12 ppm (Myzus persicae [2]) | percent control (mortality, anti-feedant effect or growth inhibition) at 200 ppm (Spodoptera littoralis) | percent control (mortality or growth inhibition) at 200 ppm (Diabrotica balteata) | percent control (mortality or growth inhibition) at 200 ppm (Plutella xylostella)

CC(NC(=O)c1cc(Br)cc(C(F)(F)F)c1)c1nccnc1-c1ccc(=O)n(C)n1 (centres unmarked) [P10, 3-bromo-N-[1-[3-(1-methyl-6-oxo-pyridazin-3-yl)pyrazin-2-yl]ethyl]-5-(trifluoromethyl)benzamide]
≥ 80%: mortality at 200 ppm (Myzus persicae [1]) | percent control (mortality, anti-feedant effect or growth inhibition) at 200 ppm (Chilo suppressalis) | mortality at 12 ppm (Myzus persicae [2]) | percent control (mortality, anti-feedant effect or growth inhibition) at 200 ppm (Spodoptera littoralis) | percent control (mortality or growth inhibition) at 200 ppm (Diabrotica balteata) | percent control (mortality or growth inhibition) at 200 ppm (Plutella xylostella)
